Measurements as given in ChEMBL document CHEMBL1144056, “Characterization of 6-epi-3-anhydroophiobolin B from Cochliobolus heterostrophus” (J Nat Prod, 1999).
Converted amounts (≈) assume the structure as drawn.

Assays:
Plasmodium falciparum [1] = experiment: Antimalarial activity against Plasmodium falciparum W2; assay type: functional, organism-based
P388 = experiment: Cytotoxicity against mouse P388 cells; assay type: functional, cell-based
[2] = Cytotoxicity against human Mel20 cells; assay type: functional, cell-based
Plasmodium falciparum [3] = experiment: Antimalarial activity against Plasmodium falciparum D6; assay type: functional, organism-based
A549 = experiment: Cytotoxicity against human A549 cells; assay type: functional, cell-based
HT-29 = experiment: Cytotoxicity against human HT-29 cells; assay type: functional, cell-based

CC(C)=C[C@H]1C[C@H](C)[C@]2(CC[C@]3(C)C[C@H]4[C@H](C(=O)C[C@@]4(C)O)/C(C=O)=C\C[C@H]32)O1 [OPHIOBOLIN A]
IC50 (Plasmodium falciparum [1]): 0.58 µg/mL (≈ 1.45 µM)
IC50 (P388): 0.025 µg/mL (≈ 0.0624 µM)
IC50 [2]: 0.05 µg/mL (≈ 0.125 µM)
IC50 (Plasmodium falciparum [3]): < 0.529 µg/mL
IC50 (A549): 0.05 µg/mL (≈ 0.125 µM)
IC50 (HT-29): 0.05 µg/mL (≈ 0.125 µM)
